# Laboratory results reported in patent US5061720A, “Substituted-4-thiazolidinone derivatives” (A. H. Robins Company, Inc., priority 1989, dated 1991).
# Target: T1, cyclooxygenase (Ovis aries, UniProt P05979)
# T1 construct: Lipid-depleted Sheep Seminal Vesicle Microsome Suspension; from tissue; host or cells: sheep seminal vesicle microsomes (lipid-depleted powder, detergent solubilized)
# T1 sequence (P05979 25-600): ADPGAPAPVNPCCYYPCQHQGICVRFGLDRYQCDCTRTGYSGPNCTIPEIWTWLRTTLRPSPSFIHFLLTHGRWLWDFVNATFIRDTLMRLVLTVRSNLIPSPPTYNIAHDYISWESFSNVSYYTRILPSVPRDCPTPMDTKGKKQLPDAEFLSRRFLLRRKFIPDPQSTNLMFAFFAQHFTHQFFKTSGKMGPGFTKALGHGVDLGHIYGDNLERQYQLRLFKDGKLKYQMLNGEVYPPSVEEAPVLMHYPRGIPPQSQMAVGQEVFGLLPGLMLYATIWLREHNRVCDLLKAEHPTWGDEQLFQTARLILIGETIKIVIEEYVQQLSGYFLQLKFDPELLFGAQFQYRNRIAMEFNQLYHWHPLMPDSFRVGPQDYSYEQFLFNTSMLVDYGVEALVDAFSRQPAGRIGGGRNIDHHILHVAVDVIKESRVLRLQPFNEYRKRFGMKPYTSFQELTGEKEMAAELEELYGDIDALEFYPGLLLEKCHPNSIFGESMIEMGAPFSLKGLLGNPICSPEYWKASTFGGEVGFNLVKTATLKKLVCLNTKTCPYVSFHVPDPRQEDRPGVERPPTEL
# Assay: Cyclooxygenase Assay (polarigraphic oxygen consumption, lipid-depleted sheep seminal vesicle microsomes)
# Format: biochemical
# Conditions: 30° C., 2 min incubation, ammonium arachidonate substrate
# Method: Cyclooxygenase activity was determined polarigraphically with detergent solubilized, lipid-depleted sheep seminal vesical microsomes. Addition of test articles that inhibit cyclooxygenase, including reference standards, cause a decrease in the rate of oxygen consumption in the reactions. Cyclooxygenase activity is determined using the following procedures:
# I. Preparation of Test Materials
# 1. Lipid-Depleted Sheep Seminal Vesicle Microsomal Powder. This preparation follows the procedure of G. Graff et al. J. Biol. Chem. 253, 7662 (1978).
# 2. Ammonium Arachidonate Solution. A 250 μL aliquot of 20.0 mM arachidonic acid in absolute ethanol and a 50-μL aliquot of concentrated ammonium hydroxide is placed into a test tube. The solvent and excess ammonium hydroxide is evaporated under a stream of nitrogen at room temperature. The ammonium arachidonate residue is dissolved in 500 μL of 100 mM 2-amino-2-hydroxymethyl-1,3-propanediol hydrochloride (Tris HCl) buffer (pH 8.0) by using a vortex mixer. The final concentration of ammonium arachidonate (working solution) is 10.0 mM.
# 3. Enzyme Buffer 100 mM Tris HCl (pH 8.0) containing 2.0 mM phenol, 5.0 mM ethylenediaminetetraacetic acid (EDTA), 5.0 mM diethyldithiocarbamic acid and 1.0% Tween 20.
# 4. Reaction Buffer 100 mM Tris HCl (pH 8.0) containing 2.0 μM hematin and 1.0 mM phenol (prepared daily).
# 5. Detergent Solubilized Lipid-depleted Sheep Seminal Vesicle Microsome Suspension. Ten mg (solid) of lipid-depleted microsomal powder from sheep seminal vesicles is suspended in 1.0 mL of enzyme buffer and kept at 4° C. until used.
# 6. Solutions of Test (Formula I compound) or Reference Articles. Test and reference articles are dissolved in the reaction buffer prepared in 4) or a solvent that will not interfere with cyclooxygenase activity, e.g., dimethylsulfoxide, ethanol or acetone.
# II. Cyclooxygenase Inhibition Assay
# Three mL of the reaction buffer and 20 μL of the microsomal enzyme suspension are placed in a Yellow Springs Instrument (YSI) oxygen chamber where the temperature is maintained at 30° C. by means of a temperature controlled circulating water bath. Aliquots of the solutions containing ≤[…] of Formula I compound (test article) or reference article [see 6) above] are added to the YSI chamber and incubated for 2 minutes. The reaction is initiated by addition of 30 μL of the 10 mM ammonium arachidonate solution and cyclooxygenase activity determined polarigraphically using an oxygen electrode by measuring the rate of oxygen consumption [Cook et al., Anal. Biochem 96 341-51 (1979) and Cook and Lands, Can. J. Biochem. 53, 1220-1231 (1975)].
# Test, reference, and control articles were evaluated in triplicate. Cyclooxygenase activity was determined from the slope (mv/unit time) of the recorder tracing with 1 mV being proportional to a 2.34 μM change in oxygen concentration.
# The IC50 (concentration of test or reference article that inhibits the reaction by 50%) was calculated from cumulative plots relating the extent of inhibition of cyclooxygenase activity in control group assays to increasing concentrations of test article. Where no inhibition exists, the IC50 is expressed as greater than the highest concentration of the drug tested.
row,Structure (SMILES),IC50
1,CCCC[C@@H]1S[C@H](c2cccc(Oc3ccccc3)c2)N(CCCCCC(=O)OCC)C1=O (relative stereo) [Example 51],260 nM
2,"CCCC[C@@H]1S[C@@H](c2cccc(Oc3ccccc3)c2)NC1=O (relative stereo) [Example 83, 5-Butyl-2-(3-phenoxyphenyl)-4-thiazolidinone]",12000 nM
3,"CCCCC1SC(c2cccc(Oc3ccccc3)c2)N(CCCCc2ccccc2)C1=O (stereo not shown) [Example 1, 5-Butyl-2-(3-phenoxyphenyl)-3-(4-phenylbutyl)-4-thiazolidinone]",90 nM
4,"CC1SC(c2cccc(Oc3ccccc3)c2)N(CCCCc2ccccc2)C1=O (stereo not shown) [Example 7, 5-Methyl-2-(3-phenoxyphenyl)-3-(4-phenylbutyl)-4-thiazolidinone]",1400 nM
5,"CCCCC1SC(c2cccc(C(=O)c3ccccc3)c2)N(CCCCc2ccccc2)C1=O (stereo not shown) [Example 8, 2-(3-Benzoylphenyl)-5-butyl-3-(4-phenylbutyl)-4-thiazolidinone]",10 nM
6,"CCCCC1SC(c2cccc(Oc3ccccc3)c2)N(CCc2ccccc2)C1=O (stereo not shown) [Example 17, 5-Butyl-2-(3-phenoxyphenyl)-3-(2-phenylethyl)-4-thiazolidinone]",3400 nM
7,"CCCCC1SC(c2cccc(Oc3ccccc3)c2)N(CCCCC(=O)O)C1=O (stereo not shown) [Example 45, 5-Butyl-4-oxo-2-(3-phenoxyphenyl)-3-thiazolidinepentanoic acid]",9300 nM
